Test system: HIV-1 (H9IIIB virus)
Assay: Viking assay: antiviral potency in a multiple round HIV-1 infection assay (MT4-GFP cells)
Type: cell-based
Conditions: Human immunodeficiency virus 1, MT4-GFP cells, 10% normal human serum; inhibition of reproductive ratio R0; read-out: Viking, IC50 (10% NHS)
Method: Assessing Antiviral Potency in a Multiple Round HIV-1 Infection Assay.
HIV-1 replication was monitored using MT4-gag-GFP clone D3 (hereafter designate MT4-GFP), which are MT-4 cells modified to harbor a GFP reporter gene, the expression of which is dependent on the HIV-1 expressed proteins tat and rev. Productive infection of an MT4-GFP cell with HIV-1 results in GFP expression approximately 24h post-infection.
MT4-GFP cells were maintained at 37° C./5% CO2/90% relative humidity in RPMI 1640 supplemented with 10% fetal bovine serum, 100 U/mL penicillin/streptomycin, and 400 μg/mL G418 to maintain the reporter gene. For infections, MT4-GFP cells were placed in the same medium lacking G418 and infected overnight with H9IIIB virus at an approximate multiplicity of infection of 0.01 in the same incubation conditions. Cells were then washed and re-suspended in either RPMI 1640 containing 10% or 50% normal human serum at 1.6×10^5 cells/mL. Compound plates were prepared by dispensing compounds dissolved in DMSO into wells of 384 well poly D lysine-coated plates ([…]) using an ECHO acoustic dispenser. Each compound was tested in a 10 point serial 3-fold dilution (typical final concentrations: 8.4 μM-0.43 nM). Controls included no inhibitor (DMSO only) and a combination of three antiviral agents (efavirenz, indinavir, and an integrase strand transfer inhibitor at final concentrations of 4 μM each). Cells were added (50 μL/well) to compound plates and the infected cells were maintained at 37° C./5% CO2/90% relative humidity.
Infected cells were quantified at two time points, ˜48h and ˜72h post-infection, by counting the number of green cells in each well using an Acumen eX3 scanner. The increase in the number of green cells over ˜24h period gives the reproductive ratio, R0, which is typically 5-15 and has been shown experimentally to be in logarithmic phase (data not shown). Inhibition of R0 is calculated for each well, and IC50s determined by non-linear 4-parameter curve fitting.

Q: Which IC50 does the source give for C#C[C@]1(CO)C[C@@H](n2cnc3c(=O)[nH]c(N)nc32)C[C@@H]1O (racemic) [Example (+/−) 26, 2-amino-9-((1R,3S,4S)-3-ethynyl-4-hydroxy-3-(hydroxymethyl)cyclopentyl)-1,9-dihydro-6H-purin-6-one and 2-amino-9-((1S,3R,4R)-3-ethynyl-4-hydroxy-3-(hydroxymethyl)cyclopentyl)-1,9-dihydro-6H-purin-6-one] here?
A: 0.195 µM

Q: Which IC50 does the source give for C#C[C@]1(CO)C[C@@H](n2ccc3c(N)nc(Cl)nc32)C[C@@H]1O (racemic) [Example (+/−) 22, (1S,2S,4R)-4-(4-amino-2-chloro-7H-pyrrolo[2,3-d]pyrimidin-7-yl)-2-ethynyl-2-(hydroxymethyl)cyclopentan-1-ol and (1R,2R,4S)-4-(4-amino-2-chloro-7H-pyrrolo[2,3-d]pyrimidin-7-yl)-2-ethynyl-2-(hydroxymethyl)cyclopentan-1-ol] here?
A: 22.2 µM

Q: C#C[C@]1(CO[P@@](=O)(N[C@@H](C)C(=O)OC(C)C)Oc2ccccc2)C[C@@H](n2cnc3c(OCC)nc(N)nc32)C[C@@H]1O (mixture of isomers) [Example 39A and 39B, Isopropyl ((S)-(((1S,2S,4R)-4-(2-amino-6-ethoxy-9H-purin-9-yl)-1-ethynyl-2-hydroxycyclopentyl)methoxy)(phenoxy)phosphoryl)-L-alaninate and Isopropyl ((S)-(((1R,2R,4S)-4-(2-amino-6-ethoxy-9H-purin-9-yl)-1-ethynyl-2-hydroxycyclopentyl)methoxy)(phenoxy)phosphoryl)-L-alaninate] was tested. Which IC50 did it give?
A: 0.0271 µM

Q: C#C[C@@]1(CO[P@@](=O)(N[C@@H](C)C(=O)OC(C)C)Oc2ccccc2)C[C@H](n2cnc3c(OCC)nc(N)nc32)C[C@H]1O (single isomer, unassigned) [Example 39A, Isopropyl ((S)-(((1S,2S,4R)-4-(2-amino-6-ethoxy-9H-purin-9-yl)-1-ethynyl-2-hydroxycyclopentyl)methoxy)(phenoxy)phosphoryl)-L-alaninate or Isopropyl ((S)-(((1R,2R,4S)-4-(2-amino-6-ethoxy-9H-purin-9-yl)-1-ethynyl-2-hydroxycyclopentyl)methoxy)(phenoxy)phosphoryl)-L-alaninate] was tested. Which IC50 did it give?
A: 0.484 µM

Q: Which IC50 does the source give for N#C[C@]1(CO)C[C@@H](n2cnc3c(=O)[nH]c(N)nc32)C[C@@H]1O (racemic) [Example (+/−) 61, (1S,2S,4R)-4-(2-amino-6-oxo-1,6-dihydro-9H-purin-9-yl)-2-hydroxy-1-(hydroxymethyl)cyclopentane-1-carbonitrile and (1R,2R,4S)-4-(2-amino-6-oxo-1,6-dihydro-9H-purin-9-yl)-2-hydroxy-1-(hydroxymethyl)cyclopentane-1-carbonitrile] here?
A: 0.998 µM

Q: N#C[C@@]1(CO)C[C@H](n2cnc3c(N)nc(F)nc32)C[C@H]1O (single isomer, unassigned) [Example 73B, (1S,2S,4R)-4-(6-amino-2-fluoro-9H-purin-9-yl)-2-hydroxy-1-(hydroxymethyl)cyclopentane-1-carbonitrile or (1R,2R,4S)-4-(6-amino-2-fluoro-9H-purin-9-yl)-2-hydroxy-1-(hydroxymethyl)cyclopentane-1-carbonitrile] was tested. Which IC50 did it give?
A: 11 µM

Q: With N#C[C@]1(CO)C[C@@H](n2cnc3c(N)nc(F)nc32)C[C@@H]1O (single isomer, unassigned) [Example 73A, (1S,2S,4R)-4-(6-amino-2-fluoro-9H-purin-9-yl)-2-hydroxy-1-(hydroxymethyl)cyclopentane-1-carbonitrile or (1R,2R,4S)-4-(6-amino-2-fluoro-9H-purin-9-yl)-2-hydroxy-1-(hydroxymethyl)cyclopentane-1-carbonitrile] as the compound, how does the IC50 read?
A: > 42 µM

Q: C#C[C@]1(CO)C[C@@H](n2cnc3c(Cl)nc(F)nc32)C[C@@H]1O (racemic) [Example (+/−) 12, (1S,2S,4R)-4-(6-chloro-2-fluoro-9H-purin-9-yl)-2-ethynyl-2-(hydroxymethyl)cyclopentan-1-ol and (1R,2R,4S)-4-(6-chloro-2-fluoro-9H-purin-9-yl)-2-ethynyl-2-(hydroxymethyl)cyclopentan-1-ol] was tested. Which IC50 did it give?
A: > 42 µM

Q: For Cc1cn([C@H]2C[C@H](O)[C@@](C#N)(CO)C2)c(=O)[nH]c1=O (racemic) [Example (+/−) 69, (1S,2S,4R)-2-hydroxy-1-(hydroxymethyl)-4-(5-methyl-2,4-dioxo-3,4-dihydropyrimidin-1(2H)-yl)cyclopentane-1-carbonitrile and (1R,2R,4S)-2-hydroxy-1-(hydroxymethyl)-4-(5-methyl-2,4-dioxo-3,4-dihydropyrimidin-1(2H)-yl)cyclopentane-1-carbonitrile], which IC50 is on record?
A: 16 µM

Q: With C#C[C@]1(CO)C[C@@H](n2cnc3c(N)nc(Cl)nc32)C[C@@H]1O (single isomer, unassigned) [Example 18B, (1S,2S,4R)-4-(6-amino-2-chloro-9H-purin-9-yl)-2-ethynyl-2-(hydroxymethyl)cyclopentan-1-ol or (1R,2R,4S)-4-(6-amino-2-chloro-9H-purin-9-yl)-2-ethynyl-2-(hydroxymethyl)cyclopentan-1-ol] as the compound, how does the IC50 read?
A: 11.7 µM

Q: With N#C[C@]1(CO)C[C@@H](n2ccc(N)nc2=O)C[C@@H]1O (racemic) [Example (+/−) 65, (1S,2S,4R)-4-(4-amino-2-oxopyrimidin-1(2H)-yl)-2-hydroxy-1-(hydroxymethyl)cyclopentane-1-carbonitrile and (1R,2R,4S)-4-(4-amino-2-oxopyrimidin-1(2H)-yl)-2-hydroxy-1-(hydroxymethyl)cyclopentane-1-carbonitrile] as the compound, how does the IC50 read?
A: > 42 µM

Q: How did the IC50 turn out when C#C[C@]1(CO[P@@](=O)(N[C@@H](C)C(=O)OC(C)C)Oc2ccccc2)C[C@@H](n2cnc3c(OCC)nc(N)nc32)C[C@@H]1O (single isomer, unassigned) [Example 39B, Isopropyl ((S)-(((1S,2S,4R)-4-(2-amino-6-ethoxy-9H-purin-9-yl)-1-ethynyl-2-hydroxycyclopentyl)methoxy)(phenoxy)phosphoryl)-L-alaninate or Isopropyl ((S)-(((1R,2R,4S)-4-(2-amino-6-ethoxy-9H-purin-9-yl)-1-ethynyl-2-hydroxycyclopentyl)methoxy)(phenoxy)phosphoryl)-L-alaninate] was run?
A: 0.00593 µM

Q: C#C[C@]1(CO)C[C@@H](n2ccc3c(Cl)nc(Cl)nc32)C[C@@H]1O (racemic) [Example (+/−) 21, (1S,2S,4R)-4-(2,4-dichloro-7H-pyrrol[2,3-d]pyrimidin-7-yl)-2-ethynyl-2-(hydroxymethyl)cyclopentan-1-ol and (1R,2R,4S)-4-(2,4-dichloro-7H-pyrrolo[2,3-d]pyrimidin-7-yl)-2-ethynyl-2-(hydroxymethyl)cyclopentan-1-ol] was tested. Which IC50 did it give?
A: > 42 µM

Q: For C#C[C@]1(CO)C[C@@H](n2ccc(N)nc2=O)C[C@@H]1O (racemic) [Example (+/−) 38, 4-amino-1-((1R,3S,4S)-3-ethynyl-4-hydroxy-3-(hydroxymethyl)cyclopentyl)pyrimidin-2(1H)-one and 4-amino-1-((1S,3R,4R)-3-ethynyl-4-hydroxy-3-(hydroxymethyl)cyclopentyl)pyrimidin-2(1H)-one], which IC50 is on record?
A: > 42 µM

Q: Which IC50 does the source give for C#C[C@]1(CO)C[C@@H](n2cnc3c(OCC)nc(N)nc32)C[C@@H]1O (racemic) [Example (+/−) 30, (1S,2S,4R)-4-(2-amino-6-ethoxy-9H-purin-9-yl)-2-ethynyl-2-(hydroxymethyl)cyclopentan-1-ol and (1R,2R,4S)-4-(2-amino-6-ethoxy-9H-purin-9-yl)-2-ethynyl-2-(hydroxymethyl)cyclopentan-1-ol] here?
A: 0.614 µM

Q: With C#C[C@]1(CO)C[C@@H](n2cc(C)c(=O)[nH]c2=O)C[C@@H]1O (racemic) [Example (+/−) 34, 1-((1R,3S,4S)-3-ethynyl-4-hydroxy-3-(hydroxymethyl)cyclopentyl)-5-methylpyrimidine-2,4(1H,3H)-dione and 1-((1S,3R,4R)-3-ethynyl-4-hydroxy-3-(hydroxymethyl)cyclopentyl)-5-methylpyrimidine-2,4(1H,3H)-dione] as the compound, how does the IC50 read?
A: > 42 µM

Same assay, conditions: MT4-GFP cells, 10% normal human serum; inhibition of reproductive ratio R0; read-out: Viking, IC50 (10% NHS)

Q: For C#C[C@]1(CO)C[C@@H](n2cnc3c(=O)[nH]c(N)nc32)C[C@@H]1O (single isomer, unassigned) [Example 26A, 2-amino-9-((lR,3S,4S)-3-ethynyl-4-hydroxy-3-(hydroxymethyl)cyclopentyl)-1,9-dihydro-6H-purin-6-one or 2-amino-9-((1S,3R,4R)-3-ethynyl-4-hydroxy-3-(hydroxymethyl)cyclopentyl)-1,9-dihydro-6H-purin-6-one], which IC50 is on record?
A: > 42 µM

Q: For C#C[C@]1(CO)C[C@@H](n2cnc3c(=O)[nH]c(N)nc32)C[C@@H]1O (single isomer, unassigned) [Example 26B, 2-amino-9-((1R,3S,4S)-3-ethynyl-4-hydroxy-3-(hydroxymethyl)cyclopentyl)-1,9-dihydro-6H-purin-6-one or 2-amino-9-((1S,3R,4R)-3-ethynyl-4-hydroxy-3-(hydroxymethyl)cyclopentyl)-1,9-dihydro-6H-purin-6-one], which IC50 is on record?
A: 0.142 µM

Reference: patent publication US11040975B2, “Carbocyclic nucleoside reverse transcriptase inhibitors” (Merck Sharp & Dohme Corp., priority 2017, dated 2021)
